Experimental data: patent US9938543B2, “Methods, reagents and cells for biosynthesizing glutarate methyl ester” (priority 2014, dated 2018)

Columns and labels:
Type in all cases: biochemical
[1] = test system: carboxylate reductase of SEQ ID NO: 3 (Mycobacterium smegmatis); assay: Carboxylate reductase enzyme activity assay, glutarate methyl ester as substrate (NADPH consumption at 340 nm); conditions: 2 mM glutarate methyl ester, 1 mM NADPH, 1 mM ATP, pH 7.5, room temperature 20 min; enhanced by gene product of sfp; against empty vector control
Description: (§1) A nucleotide sequence encoding a His-tag was added to the genes from Mycobacterium marinum, Mycobacterium smegmatis, Segniliparus rugosus, Mycobacterium massiliense, and Segniliparus rotundus that encode the carboxylate reductases of SEQ ID NOs: 2-4, 6 and 7, respectively (GenBank Accession Nos. ACC40567.1, ABK71854.1, EFV11917.1, EIV11143.1, and ADG98140.1, respectively) (see FIG. 8) such that N-terminal HIS tagged carboxylate reductases could be produced. Each of the modified genes was cloned into a pET Duet expression vector alongside a sfp gene encoding a His-tagged phosphopantetheine transferase from Bacillus subtilis, both under control of the T7 promoter. Each expression vector was transformed into a BL21[DE3] E. coli host along with the expression vectors from Example 2. Each resulting recombinant E. coli strain was cultivated at 37° C. in a 250 mL shake flask culture containing 50 mL LB media and antibiotic selection pressure, with shaking at 230 rpm. Each culture was induced overnight at 37° C. using an auto-induction media.
(§2) The pellet from each induced shake flask culture was harvested via centrifugation. Each pellet was resuspended and lysed via sonication. The cell debris was separated from the supernatant via centrifugation. The carboxylate reductases and phosphopantetheine transferase were purified from the supernatant using Ni-affinity chromatography, diluted 10-fold into 50 mM HEPES buffer (pH=7.5) and concentrated via ultrafiltration.
(§3) The enzyme activity assay was performed in triplicate in a buffer composed of a final concentration of 50 mM HEPES buffer (pH=7.5), 2 mM glutarate methyl ester, 10 mM MgCl2, 1 mM ATP and 1 mM NADPH. The enzyme activity assay reaction was initiated by adding purified carboxylate reductase and phosphopantetheine transferase or the empty vector control to the assay buffer containing the glutarate methyl ester and then incubated at room temperature for 20 min. The consumption of NADPH was monitored by absorbance at 340 nm.

[2] = target: T1, carboxylate reductase of SEQ ID NO: 2 (Mycobacterium marinum) (Mycobacterium marinum, UniProt B2HN69); assay: as above; conditions: 2 mM glutarate methyl ester, 1 mM NADPH, 1 mM ATP, pH 7.5, room temperature 20 min; enhanced by gene product of sfp; against empty vector control
T1 construct: His-tag (N); made in house; host or cells: E. coli BL21[DE3], pET Duet vector
T1 sequence (B2HN69 whole entry): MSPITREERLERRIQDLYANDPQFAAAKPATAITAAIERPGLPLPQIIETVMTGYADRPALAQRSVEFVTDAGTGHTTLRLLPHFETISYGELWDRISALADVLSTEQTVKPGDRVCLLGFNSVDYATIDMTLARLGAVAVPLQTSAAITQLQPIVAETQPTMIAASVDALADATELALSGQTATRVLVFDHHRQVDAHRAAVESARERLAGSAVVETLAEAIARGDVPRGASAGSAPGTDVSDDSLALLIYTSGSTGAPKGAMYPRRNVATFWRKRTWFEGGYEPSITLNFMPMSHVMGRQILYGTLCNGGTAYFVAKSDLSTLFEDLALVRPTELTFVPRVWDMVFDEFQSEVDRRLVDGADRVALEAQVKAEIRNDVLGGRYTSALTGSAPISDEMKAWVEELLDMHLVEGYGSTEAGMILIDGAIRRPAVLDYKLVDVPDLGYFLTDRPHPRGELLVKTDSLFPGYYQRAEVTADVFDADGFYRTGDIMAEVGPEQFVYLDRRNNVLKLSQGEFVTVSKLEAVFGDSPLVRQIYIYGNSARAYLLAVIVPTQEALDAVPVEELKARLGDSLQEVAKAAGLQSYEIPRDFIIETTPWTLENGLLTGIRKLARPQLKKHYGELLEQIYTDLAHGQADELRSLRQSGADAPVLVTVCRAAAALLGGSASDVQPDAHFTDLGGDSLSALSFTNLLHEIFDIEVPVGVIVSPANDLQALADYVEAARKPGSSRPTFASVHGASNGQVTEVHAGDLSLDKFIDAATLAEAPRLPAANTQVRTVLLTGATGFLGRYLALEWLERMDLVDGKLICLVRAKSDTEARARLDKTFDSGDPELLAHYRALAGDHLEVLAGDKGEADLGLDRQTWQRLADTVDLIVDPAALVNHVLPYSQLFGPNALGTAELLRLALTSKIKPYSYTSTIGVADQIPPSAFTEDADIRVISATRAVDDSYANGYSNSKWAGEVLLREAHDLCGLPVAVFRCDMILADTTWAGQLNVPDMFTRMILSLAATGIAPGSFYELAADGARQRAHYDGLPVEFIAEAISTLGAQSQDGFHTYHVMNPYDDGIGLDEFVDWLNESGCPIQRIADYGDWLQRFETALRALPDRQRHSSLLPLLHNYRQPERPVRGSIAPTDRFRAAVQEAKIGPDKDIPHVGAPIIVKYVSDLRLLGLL
Description: as §1, §2, §3

[3] = test system: carboxylate reductase of SEQ ID NO: 6 (Mycobacterium massiliense); assay: as above; conditions: 2 mM glutarate methyl ester, 1 mM NADPH, 1 mM ATP, pH 7.5, room temperature 20 min; enhanced by gene product of sfp; against empty vector control
Description: as §1, §2, §3

[4] = test system: carboxylate reductase of SEQ ID NO: 7 (Segniliparus rotundus); assay: as above; conditions: 2 mM glutarate methyl ester, 1 mM NADPH, 1 mM ATP, pH 7.5, room temperature 20 min; enhanced by gene product of sfp; against empty vector control
Description: as §1, §2, §3

[5] = target: T2, pimeloyl-[acp] methyl ester methylesterase of SEQ ID NO: 1 (Escherichia coli, UniProt P13001); assay: Pimeloyl-[acp] methyl ester methylesterase enzyme activity assay, glutaryl-CoA methyl ester to glutaryl-CoA (LC-MS); conditions: 5 mM glutaryl-CoA methyl ester, 10 μM enzyme, 25 mM Tris.HCl pH 7.0, 30° C., 1 h
T2 construct: His-tag (C); made in house; host or cells: E. coli BL21[DE3], pET28b+ vector
T2 sequence (P13001 whole entry): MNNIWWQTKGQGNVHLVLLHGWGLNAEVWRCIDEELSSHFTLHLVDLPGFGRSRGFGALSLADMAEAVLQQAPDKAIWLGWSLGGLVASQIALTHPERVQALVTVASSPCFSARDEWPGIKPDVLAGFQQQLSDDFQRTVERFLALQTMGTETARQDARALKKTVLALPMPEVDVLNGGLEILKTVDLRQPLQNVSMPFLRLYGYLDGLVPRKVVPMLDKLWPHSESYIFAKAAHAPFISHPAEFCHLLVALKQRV
Description: A sequence encoding an C-terminal His-tag was added to the gene from Escherichia coli encoding the pimeloyl-[acp] methyl ester methylesterase of SEQ ID NO: 1 (see FIG. 8) such that C-terminal HIS tagged pimeloyl-[acp] methyl ester methylesterase could be produced. The resulting modified gene was cloned into a pET28b+ expression vector under control of the T7 promoter and the expression vector was transformed into a BL21[DE3] E. coli host. The resulting recombinant E. coli strain was cultivated at 37° C. in a 500 mL shake flask culture containing 100 mL LB media and antibiotic selection pressure, with shaking at 230 rpm. Each culture was induced overnight at 18° C. using 0.3 mM IPTG.
The pellet from each induced shake flask culture was harvested via centrifugation. Each pellet was resuspended and lysed via sonication. The cell debris was separated from the supernatant via centrifugation. The pimeloyl-[acp] methyl ester methylesterase was purified from the supernatant using Ni-affinity chromatography, buffer exchanged and concentrated into 20 mM HEPES buffer (pH=7.5) via ultrafiltration and stored at 4° C.
Enzyme activity assays converting glutaryl-CoA methyl ester to glutaryl-CoA were performed in triplicate in a buffer composed of a final concentration of 25 mM Tris.HCl buffer (pH=7.0) and 5 [mM] glutaryl-CoA methyl ester. […] The formation of glutaryl-CoA was quantified via LC-MS.

| SMILES | acceptance as substrate, forming glutarate semialdehyde methyl ester [1] | acceptance as substrate, forming glutarate semialdehyde methyl ester [2] | acceptance as substrate, forming glutarate semialdehyde methyl ester [3] | acceptance as substrate, forming glutarate semialdehyde methyl ester [4] | acceptance as substrate, forming glutaryl-CoA [5] |
| --- | --- | --- | --- | --- | --- |
| COC(=O)CCCC(=O)O [glutarate methyl ester] | accepted glutarate methyl ester as substrate | accepted glutarate methyl ester as substrate | accepted glutarate methyl ester as substrate | accepted glutarate methyl ester as substrate |  |
| COC(=O)CCCC(=O)SCCNC(=O)CCNC(=O)C(O)C(C)(C)COP(=O)(O)OP(=O)(O)OCC1OC(n2cnc3c(N)ncnc32)C(O)C1OP(=O)(O)O (centres unmarked) [glutaryl-CoA methyl ester] |  |  |  |  | accepted glutaryl-CoA methyl ester as substrate |
